Assay results: PubChem BioAssay AID256 (DTP/NCI, 2004)
Toxic doses and inconclusive results are not listed.

Test system: CD2F1 mice, L1210 leukemia ip, survival T/C
Test: NCI In Vivo Anticancer Drug Screen. Data for tumor model L1210 Leukemia (intraperitoneal) in CD2F1 (CDF1) mice
Conditions: higher = longer survival
In short: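 Activity against a transplanted murine tumor was judged by comparing the compound group with a vehicle group. The outcome in the treated animals was divided by that in the controls.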

[1] = endpoint: mean survival time, dose: 100.0 mg/kg/injection, schedule: Q01DX001 (ip), vehicle: saline with Tween-80
[2] = endpoint: mean survival time, dose: 200.0 mg/kg/injection, schedule: Q01DX001 (ip), vehicle: saline with Tween-80
[3] = endpoint: mean survival time, dose: 400.0 mg/kg/injection, schedule: Q01DX001 (ip), vehicle: saline with Tween-80
[4] = endpoint: mean survival time, dose: 100.0 mg/kg/injection, schedule: Q01DX009 (ip), vehicle: saline with Tween-80
[5] = endpoint: mean survival time, dose: 200.0 mg/kg/injection, schedule: Q01DX009 (ip), vehicle: saline with Tween-80
[6] = endpoint: mean survival time, dose: 400.0 mg/kg/injection, schedule: Q01DX009 (ip), vehicle: saline with Tween-80
[7] = endpoint: mean survival time, dose: 100.0 mg/kg/injection, schedule: Q04DX003 (ip), vehicle: saline with Tween-80
[8] = endpoint: mean survival time, dose: 200.0 mg/kg/injection, schedule: Q04DX003 (ip), vehicle: saline with Tween-80
[9] = endpoint: mean survival time, dose: 400.0 mg/kg/injection, schedule: Q04DX003 (ip), vehicle: saline with Tween-80

## CCCCCCCCOC(=O)C12Oc3ccc(-c4ccc5c(c4O)C(O)=C4C(=O)CC(C)C(O)C4(C(=O)OCCCCCCCC)O5)c(O)c3C(O)=C1C(=O)CC(C)C2O (configuration not stated)
endpoint: mean survival time, dose: 2.5 mg/kg/injection, schedule: Q01DX009 (ip), vehicle: saline with Tween-80
  T/C: 97 % of control
endpoint: mean survival time, dose: 5.0 mg/kg/injection, schedule: Q01DX009 (ip), vehicle: saline with Tween-80
  T/C: 97 % of control
endpoint: mean survival time, dose: 10.0 mg/kg/injection, schedule: Q01DX009 (ip), vehicle: saline with Tween-80
  T/C: 97 % of control

## CN1CC(=O)C(=N)C1=S
[1]
  T/C: 90 % of control
[2]
  T/C: 93 % of control
[3]
  T/C: 90 % of control

## C[N+]12CCC34c5ccccc5NC3C3C(CC(=O)[O-])OCC=C(C1)C3CC42 (configuration not stated)
endpoint: mean survival time, dose: 75.0 mg/kg/injection, schedule: Q01DX001 (ip), vehicle: other
  T/C: 96 % of control
endpoint: mean survival time, dose: 150.0 mg/kg/injection, schedule: Q01DX001 (ip), vehicle: other
  T/C: 98 % of control

## O=C1C=CN(C2OC(CO)C(O)C2O)C(=O)C1 (configuration not stated)
endpoint: mean survival time, dose: 6.25 mg/kg/injection, schedule: Q01DX009 (ip), vehicle: saline with Tween-80
  T/C: 120 % of control
endpoint: mean survival time, dose: 12.5 mg/kg/injection, schedule: Q01DX009 (ip), vehicle: saline with Tween-80
  T/C: 124 % of control
endpoint: mean survival time, dose: 75.0 mg/kg/injection, schedule: Q01DX005 (ip), vehicle: saline
  T/C: 113 % of control
[4]
  T/C: 102 % of control
endpoint: mean survival time, dose: 150.0 mg/kg/injection, schedule: Q01DX005 (ip), vehicle: saline
  T/C: 122 % of control
endpoint: mean survival time, dose: 150.0 mg/kg/injection, schedule: Q01DX005 (iv), vehicle: saline
  T/C: 124 % of control
[5]
  T/C: 113 % of control
endpoint: mean survival time, dose: 300.0 mg/kg/injection, schedule: Q01DX005 (ip), vehicle: saline
  T/C: 101 % of control
endpoint: mean survival time, dose: 300.0 mg/kg/injection, schedule: Q01DX005 (iv), vehicle: saline
  T/C: 116 % of control
[6]
  T/C: 93 % of control
endpoint: mean survival time, dose: 600.0 mg/kg/injection, schedule: Q01DX005 (ip), vehicle: saline
  T/C: 119 % of control
endpoint: median survival time, dose: 12.5 mg/kg/injection, schedule: Q01DX009 (ip), vehicle: saline
  T/C: 121 % of control
endpoint: median survival time, dose: 25.0 mg/kg/injection, schedule: Q01DX009 (ip), vehicle: saline
  T/C: 172 % of control
endpoint: median survival time, dose: 75.0 mg/kg/injection, schedule: Q01DX009 (ip), vehicle: saline
  T/C: 113 % of control

## NC(=Nc1ccccc1)SCCS(=O)(=O)O
[7]
  T/C: 102 % of control
[8]
  T/C: 100 % of control
[9]
  T/C: 104 % of control

## O=C1NC(=O)C(C2CC2)(C2CC2)N1
[4]
  T/C: 95 % of control
[5]
  T/C: 94 % of control
[6]
  T/C: 96 % of control

## CCCCCCC[CH2][Sn]1([CH2]CCCCCCC)[O]C2C(CO)OC(n3ccc(N)nc3=O)C2[O]1 (configuration not stated)
endpoint: mean survival time, dose: 12.5 mg/kg/injection, schedule: Q01DX005 (ip), vehicle: other
  T/C: 103 % of control
endpoint: mean survival time, dose: 25.0 mg/kg/injection, schedule: Q01DX005 (ip), vehicle: other
  T/C: 97 % of control
endpoint: mean survival time, dose: 50.0 mg/kg/injection, schedule: Q01DX005 (ip), vehicle: other
  T/C: 100 % of control
endpoint: mean survival time, dose: 100.0 mg/kg/injection, schedule: Q01DX005 (ip), vehicle: other
  T/C: 109 % of control

## CNNCCO
endpoint: mean survival time, dose: 50.0 mg/kg/injection, schedule: Q01DX001 (ip), vehicle: saline
  T/C: 104 % of control
endpoint: mean survival time, dose: 100.0 mg/kg/injection, schedule: Q01DX001 (ip), vehicle: saline
  T/C: 101 % of control
endpoint: mean survival time, dose: 200.0 mg/kg/injection, schedule: Q01DX001 (ip), vehicle: saline
  T/C: 101 % of control

## COc1ccc(CCc2nc(CCCCO)[nH]c2C)cc1OC
[4]
  T/C: 92 % of control

## O=C(C/C(=N\N(C(=O)c1ccccc1)c1ccccc1)c1ccccc1)c1ccccc1
[7]
  T/C: 92 % of control
[8]
  T/C: 97 % of control
[9]
  T/C: 100 % of control

## COc1ccc(/C=C/C(=O)O)cc1
[1]
  T/C: 102 % of control
[2]
  T/C: 96 % of control
[3]
  T/C: 97 % of control
